Data on 2 compounds can be found in patent US20240208961A1, “EIF4E INHIBITORS AND USES THEREOF” (PIC Therapeutics, Inc., priority 2022, published 2024).

Structures are written as SMILES.

Assay [1] relates to ZR-75-1 tumor. Briefly: ZR-75-1 subQ CDX model. Format: in vivo. As to conditions: female BALB/c nude mice, 10 mg/kg, PO, QD, FIG. 14. Here is the method: Female BALB/c nude mice were inoculated with estrogen tablets (0.36 mg/pellet, 60 days to release) 48 hours before cell inoculation. The xenograft model was established by implantation of […] of ZR-75-1 tumor cell suspension (5×10^6 cells/mouse, with 50% Matrigel) subcutaneously into the right subaxillary of female BALB/c nude mice aged 6-8 weeks. When the average tumor volume reached 153.10 mm^3, the tumor-bearing mice were randomized into treatment groups. The groups were treated as follows: Group 1: vehicle, PO, QW; Group 2: Tamoxifen 10 mg/kg, PO, QD; Group 3: Compound I-11 50 mg/kg, PO, QW.
Cell culture: The ZR-75-1 (breast, ductal carcinoma) cell was purchased from (ATCC® CRL-1500™). The base medium for this cell line ATCC-formulated RPMI-1640 Medium. To make the complete growth medium, the base medium was supplemented with 10% heat inactivated FBS and 1% PS, maintained at 37° C. in an atmosphere containing 5% CO2 in air. The tumor cells were routinely subcultured at a ratio of 1:1.5 to 1:3 every 3-6 days. Cell concentration at harvest time was 5.39×10^7 cells/mL and cell viability was 94.3% before inoculation.
Tumor inoculation: BALB/c nude mice were used in this study. Each mouse was inoculated with estrogen tablets 48 hours before cell inoculation (0.3 mg/pellet, 60 days to release). […]

Assay [2] relates to MM.1S cells. Nature of the assay: 5 day viability assay in MM.1S cells, I-11 and dexamethasone (Example 7). Format: cell-based. As to conditions: Homo sapiens, MM1.S, 120 h; MM.1S cells (steroid sensitive), 5 days, Alamar Blue; read-out: IC50 (μM), Viability Assessment (5 Days) in MM.1S Cells. Here is the method: (§1) Compound I-11 was studied in the context of dexamethasone combinations, which is used clinically in early Multiple Myeloma prior to the emergence of steroid resistance and is a common backbone therapy. The MM.1S cell line is a steroid sensitive line, and the MM.1R line is the corresponding cell line which has been driven to steroid resistance. The procedure for these studies was as follows:
(§2) Day 1: Cell Seeding and Compound Dosing
(§3) • Cells were seeded 2×10^5 in 96-well cell culture treated tissue culture plates: 87.5 μL/well; MM.1 S and MM.1R • A 5-fold serial dilution of each compound in DMSO (0-25 mM) was prepared in compound storage plates (stored at −80° C. if not to be used immediately). An 8-point curve was used for compound I-11, and a 6-point curve was used for dexamethasone (0-25 mM). • Cells were rinsed with 1% FBS Media and replaced with 87.5 μL media prior to dosing. • DMSO compound dilution series was diluted in 1% FBS media—2 μL compound in 123 μL media to give a 16× final concentration. Dosing across the plate columns 1-12 (compound I-11 0-400 μM), 6.25 μL 16× in media/well. Dosing down plate rows (columns 1-6 dexamethasone 0-400 μM), 6.25 μL 16× compound in media per well. • Cells were dosed with 12.5 μL for both compounds, with 2 replicates of dosing matrix per 96-well plate. Final volume cells and compound was 100 μL/well. • Media blank 100 μL/well×8 was set up. • All plates were incubated at 37° C.
(§4) Day 6: 5 Day Viability Assay
(§5) • Alamar Blue viability reagent was added (10 μL per well) and incubated for 3 hours at 37° C. prior to fluorescence detection (Ex560 nm/Em590 nm) on a Varioskan Lux multimode plate reader.
(Resazurin is reduced to fluorescent resorufin, in cell work by metabolically active cells.)

The test system of assay [3] is MM.1R cells. Nature of the assay: 5 day viability assay in MM.1R cells, I-11 and dexamethasone (Example 7). Format: cell-based. As to conditions: 120 h; MM.1R cells (steroid resistant), 5 days, Alamar Blue; read-out: IC50 (μM), Viability Assessment (5 Days) in MM.1R Cells. Here is the method: as §1, §2, §3, §4, §5

Usually IC50 stands for the concentration needed to halve the response being measured.

Consider `CC/C(=C(\c1ccccc1)c1ccc(OCCN(C)C)cc1)c1ccccc1` [Tamoxifen, reference compound], for which the tumor size growth result in assay [1] is “reduced tumor size growth”.
Regarding `C[C@@H]1C[C@H]2[C@@H]3CCC4=CC(=O)C=C[C@]4(C)[C@@]3(F)[C@@H](O)C[C@]2(C)[C@@]1(O)C(=O)CO` [dexamethasone, reference compound], the results for the IC50 in assay [2] and in assay [3] were 0.0133 µM and 30.9 µM, respectively.
